Reference: patent US20250215029A1 (Recludix Pharma, Inc., priority 2022, published 2025)

How the values were obtained:
[1] = biological target: T1, Recombinant STAT3 protein (STAT3 (G127-I722)) (Homo sapiens, UniProt P40763); test: STAT3 Fluorescence Polarization (FP) Assay; type: binding; details: STAT3 (G127-I722) 25 nM, probe 5-FAM-GpYLPQTV-NH2 2 nM, 45-minute incubation; read-out: STAT3 (FP assay IC50 class)
T1 construct: Recombinant STAT3 protein (STAT3 (G127-I722))
How it was run: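 Read-out is fluorescence polarization (mP) after 45 min at room temperature, with IC50 fitted by nonlinear regression against log compound concentration. Mixture: 25 nM STAT3 (G127-I722), 2 nM 5-FAM-GpYLPQTV-NH2 phosphopeptide, 10 mM HEPES pH 7.4 buffer, 1% DMSO.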

[2] = biological target: T2, Recombinant STAT6 protein (STAT6 (W123-T658)) (Homo sapiens, UniProt P42226); test: STAT6 Fluorescence Polarization (FP) Assay; type: binding; details: STAT6 (W123-T658) 250 nM, probe 5-FAM-Ap[…]-NH2 2 nM, 45-minute incubation; read-out: STAT6 (FP assay IC50 class)
T2 construct: Recombinant STAT6 protein (STAT6 (W123-T658))
T2 sequence (P42226 123-658): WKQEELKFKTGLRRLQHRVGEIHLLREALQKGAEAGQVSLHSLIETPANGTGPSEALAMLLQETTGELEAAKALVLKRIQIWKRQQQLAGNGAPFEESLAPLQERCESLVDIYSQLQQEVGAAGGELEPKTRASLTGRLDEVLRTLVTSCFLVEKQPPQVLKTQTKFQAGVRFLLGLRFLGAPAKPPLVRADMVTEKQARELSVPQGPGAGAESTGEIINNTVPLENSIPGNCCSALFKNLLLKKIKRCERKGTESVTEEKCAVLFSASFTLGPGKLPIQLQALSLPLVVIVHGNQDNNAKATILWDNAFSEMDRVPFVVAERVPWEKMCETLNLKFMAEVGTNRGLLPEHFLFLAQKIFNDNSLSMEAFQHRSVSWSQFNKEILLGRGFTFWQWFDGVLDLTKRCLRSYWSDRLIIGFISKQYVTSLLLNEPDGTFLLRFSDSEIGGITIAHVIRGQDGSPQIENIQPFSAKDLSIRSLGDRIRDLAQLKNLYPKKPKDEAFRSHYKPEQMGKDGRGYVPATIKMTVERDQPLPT
How it was run: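 Serially diluted compounds received a premix of STAT6 (W123-T658, 250 nM) and 5-FAM peptide probe (2 nM) in pH 7.4 HEPES buffer containing DTT and Tween 20. Following 45 min at room temperature, FP was recorded. IC50s were fitted by nonlinear regression; values are binned A (≤300 nM), B (>300-3000 nM), C (>3-30 μM), D (>30 μM).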

T1 sequence (P40763 127-722): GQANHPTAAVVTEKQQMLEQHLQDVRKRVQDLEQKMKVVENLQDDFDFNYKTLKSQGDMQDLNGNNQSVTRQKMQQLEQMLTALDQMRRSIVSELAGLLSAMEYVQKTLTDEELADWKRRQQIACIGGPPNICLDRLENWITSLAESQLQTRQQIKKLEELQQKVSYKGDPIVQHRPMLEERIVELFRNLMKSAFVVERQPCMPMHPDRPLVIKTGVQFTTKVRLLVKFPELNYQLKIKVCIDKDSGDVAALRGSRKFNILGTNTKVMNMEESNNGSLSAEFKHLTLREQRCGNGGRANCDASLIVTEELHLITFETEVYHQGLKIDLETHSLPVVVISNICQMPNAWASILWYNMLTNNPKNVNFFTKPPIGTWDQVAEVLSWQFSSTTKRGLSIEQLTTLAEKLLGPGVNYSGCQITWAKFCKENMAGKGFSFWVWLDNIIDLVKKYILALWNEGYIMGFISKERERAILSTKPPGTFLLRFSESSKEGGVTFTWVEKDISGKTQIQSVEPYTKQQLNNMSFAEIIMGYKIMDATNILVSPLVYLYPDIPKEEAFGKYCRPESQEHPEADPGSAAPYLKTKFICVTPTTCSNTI

SMILES	IC50 [1]	IC50 [2]
N#CC1(c2ccccn2)CN(C(=O)[C@@H]2CC[C@@H]3CCC[C@H](NC(=O)c4cc5cc(C(F)(F)P(=O)(O)O)ccc5s4)C(=O)N32)C1 [Compound 776, ((2-(((3S,6S,9aS)-3-(3-cyano-3-(pyridin-2-yl)azetidine-1-carbonyl)-5-oxooctahydro-1H-pyrrolo[1,2-a]azepin-6-yl)carbamoyl)benzo [b]thiophen-5-yl)difluoromethyl) phosphonic acid]	< 0.1 µM	0.3 to 3 µM
N#CC1CN(C(=O)[C@@H]2CC[C@@H]3CCC[C@H](NC(=O)c4cc5cc(C(F)(F)P(=O)(O)O)ccc5s4)C(=O)N32)C1 [Compound 780, ((2-(((3S,6S,9aS)-3-(3-cyanoazetidine-1-carbonyl)-5-oxooctahydro-1H-pyrrolo[1,2-a]azepin-6-yl)carbamoyl)benzo [b]thiophen-5-yl)difluoromethyl) phosphonic acid]	0.1 to 1 µM	0.3 to 3 µM
CC(C)C1(c2ccccc2)CN(C(=O)[C@@H]2CC[C@@H]3CCC[C@H](NC(=O)c4cc5cc(C(F)(F)P(=O)(O)O)ccc5s4)C(=O)N32)C1 [Compound 784, (difluoro(2-(((3S,6S,9aS)-3-(3-isopropyl-3-phenylazetidine-1-carbonyl)-5-oxooctahydro-1H-pyrrolo[1,2-a]azepin-6-yl)carbamoyl)benzo [b]thiophen-5-yl)methyl) phosphonic acid]	0.1 to 1 µM	3 to 30 µM
O=C(N[C@H]1CCC[C@H]2CC[C@@H](C(=O)N3CC(C4COC4)C3)N2C1=O)c1cc2cc(C(F)(F)P(=O)(O)O)ccc2s1 [Compound 785, (difluoro(2-(((3S,6S,9aS)-3-(3-(oxetan-3-yl)azetidine-1-carbonyl)-5-oxooctahydro-1H-pyrrolo[1,2-a]azepin-6-yl)carbamoyl)benzo [b]thiophen-5-yl)methyl) phosphonic acid]	0.1 to 1 µM	3 to 30 µM
O=C(N[C@H]1CCCC[C@H]2CC[C@@H](C(=O)N3CCCC34CC4)N2C1=O)c1cc2cc(C(F)(F)P(=O)(O)O)ccc2s1 [Compound 786, (difluoro(2-(((3S,6S,10aS)-5-oxo-3-(4-azaspiro[2.4]heptane-4-carbonyl)decahydropyrrolo[1,2-a]azocin-6-yl)carbamoyl)benzo [b]thiophen-5-yl)methyl) phosphonic acid]	1 to 10 µM	0.3 to 3 µM
CS(=O)(=O)NC1CN(C(=O)[C@@H]2CC[C@@H]3CCCC[C@H](NC(=O)c4cc5cc(C(F)(F)P(=O)(O)O)ccc5s4)C(=O)N32)C1 [Compound 787, (difluoro(2-(((3S,6S,10aS)-3-(3-(methylsulfonamido)azetidine-1-carbonyl)-5-oxodecahydropyrrolo [1,2-a]azocin-6-yl)carbamoyl)benzo [b]thiophen-5-yl)methyl) phosphonic acid]	< 0.1 µM	0.3 to 3 µM
CN(CCc1cc[nH]c(=O)c1)C(=O)[C@@H]1CC[C@@H]2CCCC[C@H](NC(=O)c3cc4cc(C(F)(F)P(=O)(O)O)ccc4s3)C(=O)N21 [Compound 788, (difluoro(2-(((3S,6S,10aS)-3-(methyl(2-(2-oxo-1,2-dihydropyridin-4-yl)ethyl)carbamoyl)-5-oxodecahydropyrrolo [1,2-a]azocin-6-yl)carbamoyl)benzo [b]thiophen-5-yl)methyl) phosphonic acid]	1 to 10 µM	0.3 to 3 µM
O=C(N[C@H]1CCCC[C@H]2CC[C@@H](C(=O)N3Cc4ccncc4C3)N2C1=O)c1cc2cc(C(F)(F)P(=O)(O)O)ccc2s1 [Compound 789, ((2-(((3S,6S,10aS)-3-(2,3-dihydro-1H-pyrrolo[3,4-c]pyridine-2-carbonyl)-5-oxodecahydropyrrolo [1,2-a]azocin-6-yl)carbamoyl)benzo [b]thiophen-5-yl)difluoromethyl) phosphonic acid]	0.1 to 1 µM	0.3 to 3 µM
CS(=O)(=O)CC1CN(C(=O)[C@@H]2CC[C@@H]3CCC[C@H](NC(=O)c4cc5cc(C(F)(F)P(=O)(O)O)ccc5s4)C(=O)N32)C1 [Compound 790, (difluoro(2-(((3S,6S,9aS)-3-(3-((methylsulfonyl)methyl)azetidine-1-carbonyl)-5-oxooctahydro-1H-pyrrolo[1,2-a]azepin-6-yl)carbamoyl)benzo [b]thiophen-5-yl)methyl) phosphonic acid]	< 0.1 µM	3 to 30 µM
CC(c1cc[nH]c(=O)c1)N(C)C(=O)[C@@H]1CC[C@@H]2CCCC[C@H](NC(=O)c3cc4cc(C(F)(F)P(=O)(O)O)ccc4s3)C(=O)N21 (stereo partly drawn) [Compound 791, (difluoro(2-(((3S,6S,10aS)-3-(methyl(1-(2-oxo-1,2-dihydropyridin-4-yl)ethyl)carbamoyl)-5-oxodecahydropyrrolo [1,2-a]azocin-6-yl)carbamoyl)benzo [b]thiophen-5-yl)methyl) phosphonic acid]	0.1 to 1 µM	0.3 to 3 µM
O=C(N[C@H]1CCCC[C@H]2CC[C@@H](C(=O)N3Cc4cn(C5CC5)nc4C3)N2C1=O)c1cc2cc(C(F)(F)P(=O)(O)O)ccc2s1 [Compound 794, ((2-(((3S,6S,10aS)-3-(2-cyclopropyl-2,4,5,6-tetrahydropyrrolo[3,4-c]pyrazole-5-carbonyl)-5-oxodecahydropyrrolo [1,2-a]azocin-6-yl)carbamoyl)benzo [b]thiophen-5-yl)difluoromethyl) phosphonic acid]	0.1 to 1 µM	3 to 30 µM

More lines, now with the values ahead:

IC50 [1]	IC50 [2]	SMILES
< 0.1 µM	0.3 to 3 µM	COCC1(c2ccccc2)CN(C(=O)[C@@H]2CC[C@@H]3CCC[C@H](NC(=O)c4cc5cc(C(F)(F)P(=O)(O)O)ccc5s4)C(=O)N32)C1 [Compound 777, (difluoro(2-(((3S,6S,9aS)-3-(3-(methoxymethyl)-3-phenylazetidine-1-carbonyl)-5-oxooctahydro-1H-pyrrolo[1,2-a]azepin-6-yl)carbamoyl)benzo [b]thiophen-5-yl)methyl) phosphonic acid]
< 0.1 µM	0.3 to 3 µM	Cc1ccccc1C1CN(C(=O)[C@@H]2CC[C@@H]3CCC[C@H](NC(=O)c4cc5cc(C(F)(F)P(=O)(O)O)ccc5s4)C(=O)N32)C1 [Compound 778, (difluoro(2-(((3S,6S,9aS)-5-oxo-3-(3-(o-tolyl)azetidine-1-carbonyl)octahydro-1H-pyrrolo[1,2-a]azepin-6-yl)carbamoyl)benzo [b]thiophen-5-yl)methyl) phosphonic acid]
< 0.1 µM	3 to 30 µM	Cn1cnnc1C1CN(C(=O)[C@@H]2CC[C@@H]3CCC[C@H](NC(=O)c4cc5cc(C(F)(F)P(=O)(O)O)ccc5s4)C(=O)N32)C1 [Compound 779, (difluoro(2-(((3S,6S,9aS)-3-(3-(4-methyl-4H-1,2,4-triazol-3-yl)azetidine-1-carbonyl)-5-oxooctahydro-1H-pyrrolo[1,2-a]azepin-6-yl)carbamoyl)benzo [b]thiophen-5-yl)methyl) phosphonic acid]
> 10 µM	> 30 µM	Cc1ccncc1C1CN(C(=O)[C@@H]2CC[C@@H]3CCC[C@H](NC(=O)c4cc5cc(C(F)(F)P(=O)(O)O)ccc5s4)C(=O)N32)C1 [Compound 783, (difluoro(2-(((3S,6S,9aS)-3-(3-(4-methylpyridin-3-yl)azetidine-1-carbonyl)-5-oxooctahydro-1H-pyrrolo[1,2-a]azepin-6-yl)carbamoyl)benzo [b]thiophen-5-yl)methyl) phosphonic acid]
0.1 to 1 µM	0.3 to 3 µM	CC(NC(=O)[C@@H]1CC[C@@H]2CCCC[C@H](NC(=O)c3cc4cc(C(F)(F)P(=O)(O)O)ccc4s3)C(=O)N21)c1cc[nH]c(=O)c1 (stereo partly drawn) [Compound 792, (difluoro(2-(((3S,6S,10aS)-5-oxo-3-((1-(2-oxo-1,2-dihydropyridin-4-yl)ethyl)carbamoyl)decahydropyrrolo[1,2-a]azocin-6-yl)carbamoyl)benzo [b]thiophen-5-yl)methyl) phosphonic acid]
1 to 10 µM	3 to 30 µM	CC(C)n1cc(N(C)C(=O)[C@@H]2CC[C@@H]3CCCC[C@H](NC(=O)c4cc5cc(C(F)(F)P(=O)(O)O)ccc5s4)C(=O)N32)cn1 [Compound 793, (difluoro(2-(((3S,6S,10aS)-3-((1-isopropyl-1H-pyrazol-4-yl)(methyl)carbamoyl)-5-oxodecahydropyrrolo[1,2-a]azocin-6-yl)carbamoyl)benzo [b]thiophen-5-yl)methyl) phosphonic acid]
0.1 to 1 µM	0.3 to 3 µM	CN(Cc1cc(=O)[nH]c2ccccc12)C(=O)[C@@H]1CC[C@@H]2CCCC[C@H](NC(=O)c3cc4cc(C(F)(F)P(=O)(O)O)ccc4s3)C(=O)N21 [Compound 795, (difluoro(2-(((3S,6S,10aS)-3-(methyl((2-oxo-1,2-dihydroquinolin-4-yl)methyl)carbamoyl)-5-oxodecahydropyrrolo [1,2-a]azocin-6-yl)carbamoyl)benzo [b]thiophen-5-yl)methyl) phosphonic acid]
